Literature values, collected in patent US8623879B2, “1-heterocyclyl-1,5-dihydro-pyrazolo[3,4-D] pyrimidin-4-one derivates and their use as PDE9A modulators” (Boehringer Ingelheim International GmbH, priority 2008, dated 2014).

Key:
human PDE9A = human PDE9A (Homo sapiens, UniProt O76083); settings: concentrations of up to 100 micromolar; cited from earlier work
Murine PDE9A = target: T1, Murine PDE9A (Mus musculus, UniProt O70628); settings: concentrations below 200 micromolar; cited from earlier work
T1 sequence (O70628 1-534): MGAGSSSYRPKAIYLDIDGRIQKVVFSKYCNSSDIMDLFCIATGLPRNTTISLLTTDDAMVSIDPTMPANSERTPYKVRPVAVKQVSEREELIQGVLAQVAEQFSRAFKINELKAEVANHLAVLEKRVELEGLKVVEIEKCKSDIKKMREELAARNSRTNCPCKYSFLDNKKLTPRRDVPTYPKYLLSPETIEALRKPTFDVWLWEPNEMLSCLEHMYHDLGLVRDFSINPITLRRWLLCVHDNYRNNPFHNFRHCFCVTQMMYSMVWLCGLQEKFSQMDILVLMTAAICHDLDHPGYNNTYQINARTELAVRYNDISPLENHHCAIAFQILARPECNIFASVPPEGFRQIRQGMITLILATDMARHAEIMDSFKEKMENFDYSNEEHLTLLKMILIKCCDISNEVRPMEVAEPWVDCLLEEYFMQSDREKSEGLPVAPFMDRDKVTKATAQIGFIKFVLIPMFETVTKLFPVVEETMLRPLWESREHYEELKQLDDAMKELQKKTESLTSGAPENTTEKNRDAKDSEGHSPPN

Chain of human PDE9A (O76083 whole entry): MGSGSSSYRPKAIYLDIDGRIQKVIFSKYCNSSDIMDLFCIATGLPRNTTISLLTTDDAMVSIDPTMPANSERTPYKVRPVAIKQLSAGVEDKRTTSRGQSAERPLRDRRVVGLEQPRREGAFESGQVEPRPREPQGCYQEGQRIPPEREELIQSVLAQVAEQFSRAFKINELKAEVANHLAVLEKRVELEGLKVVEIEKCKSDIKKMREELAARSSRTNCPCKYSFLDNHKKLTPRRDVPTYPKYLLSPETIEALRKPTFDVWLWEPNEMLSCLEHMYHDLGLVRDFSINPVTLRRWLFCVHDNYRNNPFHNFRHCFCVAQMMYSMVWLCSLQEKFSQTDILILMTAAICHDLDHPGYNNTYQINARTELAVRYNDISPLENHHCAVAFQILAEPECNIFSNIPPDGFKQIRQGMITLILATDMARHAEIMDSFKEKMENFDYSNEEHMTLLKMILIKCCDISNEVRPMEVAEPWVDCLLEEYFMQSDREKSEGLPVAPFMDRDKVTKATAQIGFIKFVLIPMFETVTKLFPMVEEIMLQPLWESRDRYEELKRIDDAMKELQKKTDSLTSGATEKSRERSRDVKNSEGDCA

**Q.** What does the source list for `CC(C)Cn1c(=O)n(C)c(=O)c2[nH]cnc21` [IBMX]?
**A.** inhibition on the isolated enzyme (human PDE9A): no inhibition; inhibition of murine PDE9A (Murine PDE9A): not inhibited
